Laboratory results as given in publication PMC3269340, “Pharmacokinetics of memantine in rats and mice” (PLoS Currents, 2012).

Assays:
[1] = Stability in rat liver microsomes; type: in vitro ADME; conditions: 0.5 mg/mL pooled male microsomes, read-out: Intrinsic Clearance (Cl int) Liver Microsomes
Procedure: (§1) Memantine (1 μM) was incubated in 0.5 mg/mL of pooled male rat, mouse, or human liver microsomes (obtained commercially), in 0.1 M phosphate buffer at 37 °C. After pre-warming the mixture for 5 min, reactions were initiated by the addition of NADPH (1 mM). Aliquots (80 μL) were taken at 0, 5, 10, 20 and 40 min, and the reaction immediately terminated by adding into 80 μL of acetonitrile containing an analytical internal standard (IS). Samples were centrifuged and the supernatant fractions analyzed by LC-MS/MS with multiple reaction monitoring (MRM). All incubations were performed in duplicate. Testosterone was used as the positive control. The MRM area response ratio of the analyte over IS for Time=0(control) was set to 100%, the relative decrease in MRM area ratio intensity over time against that of the control (percent parent decrease) was used to determine the half-life (t1/2) of memantine in the incubation. Half-life values were calculated from the relationship:
(§2) t1/2 (min) = -0.693/λ, where λ is the slope of the Ln concentration vs time curve. The intrinsic clearance (Clint) was calculated as:
(§3) Clint = (0.693 x incubation volume (μL))/(t½ (min) x mg of microsomal protein)

[2] = Stability in mouse liver microsomes; type: in vitro ADME; conditions: 0.5 mg/mL pooled male microsomes, read-out: Intrinsic Clearance (Cl int) Liver Microsomes
Procedure: as §1, §2, §3

human OAT3 = target: T1, human OAT3 (Homo sapiens, UniProt Q8TCC7); assay: Indirect uptake transporter assay, OAT3; type: in vitro ADME; parameters: key to Maximal Inhibition: ND: Not Determined (< 50% inhibition); NDe: Not Decisive (Activation or inhibition > 25% of the baseline but no trend observed); NIO: No Interaction Observed (< 20% inhibition)
T1 construct: expressed in transfected cells
T1 sequence (Q8TCC7 1-542): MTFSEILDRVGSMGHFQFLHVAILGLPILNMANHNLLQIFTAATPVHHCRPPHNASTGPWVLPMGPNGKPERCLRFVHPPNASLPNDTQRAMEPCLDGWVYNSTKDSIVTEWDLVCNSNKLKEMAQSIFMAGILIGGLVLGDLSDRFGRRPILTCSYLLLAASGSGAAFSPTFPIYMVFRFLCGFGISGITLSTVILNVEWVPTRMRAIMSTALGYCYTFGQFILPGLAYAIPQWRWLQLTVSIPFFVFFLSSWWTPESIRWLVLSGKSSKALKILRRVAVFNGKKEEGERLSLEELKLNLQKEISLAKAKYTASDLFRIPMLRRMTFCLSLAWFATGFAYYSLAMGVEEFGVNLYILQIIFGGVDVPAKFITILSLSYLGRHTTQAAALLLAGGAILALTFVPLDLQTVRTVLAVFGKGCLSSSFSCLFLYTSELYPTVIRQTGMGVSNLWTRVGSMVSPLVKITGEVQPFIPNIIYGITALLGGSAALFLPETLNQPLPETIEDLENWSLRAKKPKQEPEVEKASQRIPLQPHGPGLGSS
From the text: To determine whether memantine is an inhibitor of the human OATP2B1 (OATP-B), OCT1, OCT2, OAT3, PEPT1, PEPT2 uptake transporters. The standard uptake transporter assay is an indirect, inhibitory-type screening assay, performed with cold test article, which in this case was memantine. It provides information on any interaction (substrate or inhibitor) between selected uptake transporters and memantine that would affect the transport of the reporter compound. […] A radiolabeled reporter substrate is transported into the cells transfected with the selected human uptake transporter, and the inhibitory effect of memantine on the transport of this reporter substrate is measured. Values are presented on a relative scale; 100% defined as transport in the presence of the solvent and without memantine (no inhibition), and 0% defined as transport detected without transporter activity. IC50 is defined as the concentration required to inhibit the transport of the reporter substrate by 50%.
The uptake transporter assay was carried out under the conditions described in the table below, with either CHO cells or MDCKII cells stably expressing the respective uptake transporter.
Duplicate incubations of memantine (0 or DMSO control, 0.41, 1.2, 3.7, 11, 33, 100 and 300 µM) were conducted per concentration on transfected and in parental cells. A reference inhibitor (positive control, duplicate) was incubated in transfected cells.
CHO cells were cultured in a 1:1 mixture of Dubelcco’s Modified Eagle’s Medium (DMEM, Lonza, Allendale, NJ) and Ham's F-12 (F-12, Lonza, Allendale, NJ) and MDCKII cells in DMEM at 37°C in an atmosphere of 95:5 air:CO2. […]
After the experiment cells were rinsed with 2 x 100µl of Krebs-Henseleit buffer and lysed with 50 µl of 0.1M NaOH. ^3H-estrone-3-sulfate, ^14C-TEA, ^14C-metformin and ^3H-Gly-Sar transport was determined by total radioactivity by transferring an aliquot (35µl) from each well to a vial containing liquid scintillant for analysis.

YAC128 mice = conditions: cited from earlier work
[3] = test system: Alzheimer's disease patients; conditions: cited from earlier work

CC12CC3CC(C)(C1)CC(N)(C3)C2 [memantine]
microsomal CLint at 1 μM [1]: 50.4 µL/min/mg
microsomal CLint at 1 μM [2]: < 13.9 µL/min/mg
interaction with OAT3 mediated estrone-3-sulfate transport (human OAT3): did not interact
Maximal Inhibition (human OAT3; OAT3, up to 300 µM): NDe
IC50 (human OAT3; OAT3, probe printed in Table 5: Metformin (2µM), methods and text: E3S): ND (Not Determined (< 50% inhibition))
CREB phosphorylation deficit (YAC128 mice; YAC128 mice, 1 mg/kg in drinking water for 2 months, age 4 months): reversed the deficit in CREB phosphorylation
rotarod learning task (YAC128 mice; YAC128 mice, 1 mg/kg in drinking water for 2 months): improvement in a rotarod learning task
motor performance and neuropathology compared to vehicle-treated mice (YAC128 mice; YAC128 mice, high-dose (30 mg/kg)): worsened motor performance and neuropathology
HTT aggregate formation and TCP-1 expression levels (YAC128 mice; YAC128 mice, high-dose): decrease HTT aggregate formation and TCP-1 expression levels
striatal levels of Rhes protein (YAC128 mice; YAC128 mice, low-dose (not high-dose)): decreased striatal levels of Rhes protein
neuropathology and motor deficits (YAC128 mice; aged (12 months) YAC128 mice, low-dose): rescue neuropathology as well as motor deficits
efficacy in dementia patients ([3]; 10 mg single daily dose for 12 weeks): demonstrated efficacy
efficacy in moderate to severe AD ([3]; humans, 10 mg twice daily, 6-month study): efficacious
